Series [1] is described as follows: Phase separation of compounds mixed at a 1:1 volume ratio. The series is classed as physicochemical. Also on record: key: A “2” denotes phase separation into 2 distinct phases; a “1” forms a single phase.
Series [2] relates to λ phage DNA. The series is described as follows: Zymo Quick-Viral DNA/RNA kit extraction with additional TPW, LAMP with 2× diluted eluent. It is filed as biochemical. How it is done: (§1) LAMP reactions contained the following concentrations of reagents: 1× Isothermal Amplification Buffer (20 mM Tris-HCl pH 8.8, 10 mM (NH4)2SO4, 50 mM KCl, 5 mM MgSO4, 0.1% Tween-20, B0537S, NEB, Ipswich, Mass., USA), an additional 2 mM MgSO4 (B1003S, NEB), 1.4 mM deoxynucleotide mix (N0447L or N0446S, NEB), […] Invitrogen Syto-9 (S34854, Thermo Fisher Scientific), […] Invitrogen bovine serum albumin (15561020, Thermo Fisher Scientific), 320 U/mL WarmStart Bst 2.0 (M0538L, NEB), and were supplemented with nuclease-free water (not DEPC-Treated, 4387936, Thermo Fisher Scientific) up to 10 μL. LAMP primers (Integrated DNA Technologies (IDT), Coralville, Iowa, USA) were designed, ordered, and added at NEB's recommended concentrations of […] FIP/BIP, 0.2μM F3/B3, and […] LoopF/B.
(§2) Each 96-well plate was sealed and briefly spun. Heating and real-time imaging were performed on the Bio-Rad CFX-96 Touch Real-Time PCR Detection System (1855195, Bio-Rad). Each 96-well plate was cooled to 12° C. for 2 min, held at 68° C. for 47 min with 35-second fluorescence read intervals, and a melt-curve analysis was performed. For the E. coli DNA dilution experiment, the 68° C. step was held for 105 min. Time-to-positive (TTP) was determined when the software's automated baseline corrected fluorescence reached 1000 RFU.
Three different silica-column kits were tested, including: Zymo ZR Viral DNA/RNA Kit (outdated protocol, D7021), Zymo Quick-DNA/RNA Kit (updated protocol, D7021), and the QIAquick PCR Purification Kit (28104, Qiagen). For all silica-column kits, fresh collection tubes were used after each spin and centrifugation speeds were set to 16,000×g. Centrifugation was performed on either an Eppendorf 5415D centrifuge (Eppendorf, Hauppauge, N.Y., USA) or a Thermo Fisher Scientific AccuSpin Micro 17R centrifuge (13-100-676). It was noted that the QIAquick protocol calls for 17,900×g, but instead was run at 16,000×g which was the max speed for the Eppendorf 5415D. […]

The test system of series [3] is λ phage DNA. Put plainly: Zymo Quick-DNA/RNA MagBead extraction with air dry replaced by TPW, LAMP. It is filed as biochemical. Particulars: 10× dilution of eluent into LAMP. How it is done: as §1, §2
The Zymo Quick-DNA/RNA Viral MagBead (R2140) was tested. […]

The structures appear in SMILES notation.

Turning to `CCCCCCCCCCCO` [1-undecanol], the results for the Number of phases in series [1] (mixed 1:1 (volume) with Ethanol), in series [1] (mixed 1:1 (volume) with H2O) and in series [1] (mixed 1:1 (volume) with VWB (80% ethanol v/v)) were 1, 2 and 1, respectively. The “reduction in TTP vs manufacturer protocol” value in the series with λ phage DNA [2] (2× eluent dilution) turned out to be 0.78 min. In addition, the TTP with λ phage DNA [2] (2× eluent dilution, 3 columns) stood at 6.00 ± 0.04 min; with λ phage DNA [2] (all 27 wells), 10.23 ± 0.06 min. The TTP improvement in the series with λ phage DNA [3] was 0.7 min.
